{
  "source": "patent US7179908B2",
  "about": "“Water-and organic-soluble cucurbituril derivatives, their preparation methods, their separation methods and uses” (Pohang University of Science and Technology Foundation, priority 2001, dated 2007)",
  "key": {"[1]": {"test": "Solubilities of the cucurbituril derivatives in water, methanol, dimethylsulfoxide and acetonitrile", "type": "physicochemical"}, "[2]": {"test": "Binding constant measured using a microcalorimeter (VP-ITC)", "conditions": "0.05 M tris buffered solution pH 7.2", "description": "A 5.5 mM CB*[5] solution and 110 mM-KCl solution were prepared with 0.05 M tris buffered solution having a pH of 7.2. Then, the binding constant of CB*[5] was measured using a microcalorimeter (VP-ITC, manufactured by MicroCal). As a result, CB*[5] forms a 1:2 complex with potassium ions with a primary binding constant of 2.8×10^4 M^−1 and a secondary binding constant of 1.5×10^2 M^−1. CB*[5] can selectively bind with alkali metal ions, as well as with ammonium ions. The result confirms that cucurbituril derivatives can be used as ion sensors."}},
  "data": [
    {"smiles": "O=C1N2CN3C(=O)N4CN5C(=O)N6CN7C(=O)N8CN9C(=O)N%10CN1C1%11CCCCC21N1CN2C(=O)N(CN%12C(=O)N(CN%13C(=O)N(CN%14C(=O)N(CN%11C1=O)C%101CCCCC9%141)C81CCCCC7%131)C61CCCCC5%121)C41CCCCC321", "note": "(stereo not shown) [CB*[5]]", "values": [
      {"measurement": "Solubility", "setting": "[1]; Acetonitrile", "result": 0.67, "unit": "mM"},
      {"measurement": "Solubility", "setting": "[1]; Dimethylsulfoxide", "result": 18, "unit": "mM"},
      {"measurement": "Solubility", "setting": "[1]; Methanol", "result": 31, "unit": "mM"},
      {"measurement": "Solubility", "setting": "[1]; Water", "result": 260, "unit": "mM"},
      {"measurement": "complex stoichiometry with potassium ions", "setting": "[2]", "result": "1:2 complex"},
      {"measurement": "primary binding constant", "setting": "[2]; potassium ions (KCl)", "result": 28000, "unit": "M⁻¹"},
      {"measurement": "secondary binding constant", "setting": "[2]; potassium ions (KCl)", "result": 150, "unit": "M⁻¹"}
    ]}
  ]
}
